Legend:
TTR tetramers = TTR tetramers (Homo sapiens, UniProt P02766); conditions: cited from earlier work
RBP4 [1] = conditions: in vivo; cited from earlier work
rhodopsin = experiment: Rhodopsin measured spectrophotometrically in retinal extracts of dark-adapted mice after 7 days oral dosing; type: in vivo; conditions: wild-type Balb/c mice, 25 mg/kg daily oral (chow), n=8
Experimental: FIG. 14. Effects of C20-D3-retinyl acetate on rhodopsin levels in ACPHS-52-treated Balb/c mice. Rhodopsin was measured spectrophotometrically in retinal extracts (n=8) from dark-adapted treated and control mice. Treated mice were given 7 daily oral dose of 25 mg/kg ACPHS-52 or the same dose of ACPHS-52 along with 3.3 mg/kg C20-D3-retinyl acetate. Untreated control mice were kept on standard diet.
ACPHS-52 was previously identified and described as a compound that exemplifies a novel class of bispecific ligands that act as both RBP4 antagonists and kinetic stabilizers of TTR tetramers (Cioffi, C. L. et al. 2020). Thus, ACPHS-52 was used as a representative “first component” of the present disclosure in order to assess the feasibility of the co-drug strategy. Accordingly, an experiment was conducted to determine whether partial reduction in functional rhodopsin (opsin with conjugated 11-cis-retinal) induced by oral ACPHS-52 in mice can be compensated by co-administration with C20-D3-retinyl acetate.
The experiment was conducted in Balb/c mice. Three groups of mice were used: control untreated mice; mice treated with ACPHS-52; and mice treated with the ACPHS-52 plus C20-D3-retinyl acetate combination. […] Rhodopsin was measured spectrophotometrically in retinal extracts (n=8) from dark-adapted treated and control mice using a previously published protocol (Racz, B. et al. 2018).

TTR = conditions: ATTR-CM patients with symptomatic, chronic heart failure, Phase III; cited from earlier work
[2] = system: lipofuscin bisretinoid synthesis; conditions: Abca4-/- mice; cited from earlier work
RBP4 [3] = conditions: non-human primates, oral administration; cited from earlier work
RBP4 [4] = target: T1, RBP4 (Mus musculus, UniProt Q00724); conditions: rodents; cited from earlier work
T1 construct: circulating RBP4 plasma levels in rodents; host or cells: plasma/serum of rodents

[5] = Phase 2, dry AMD patients; cited from earlier work
[6] = long-term use, cancer patients; cited from earlier work
[7] = cited from earlier work
[8] = patients treated for TTR amyloidosis; cited from earlier work

For `Cc1cc(C(=O)O)nc(N2CCC(COc3ccccc3C(F)(F)F)C2)n1` (stereo not shown) [ACPHS-52], the “effect on TTR tetramers” value (TTR tetramers) is listed as “stabilization of TTR tetramers”, the “effect on serum RBP4” value (RBP4 [1]) is listed as “pronounced reduction in serum RBP4” and the “reduction in rhodopsin in comparison to untreated mice” value (rhodopsin) is listed as 3 fold.

In the case of `Cc1n[nH]c(C)c1CCCOc1cc(C(=O)O)ccc1F` [AG10], the “stabilization of TTR” value (TTR) is listed as “near-complete stabilization of TTR”.

In the case of `[2H]C([2H])([2H])C(/C=C/C=C(C)/C=C/C1=C(C)CCCC1(C)C)=C\COC(C)=O` [C20-D3-retinyl acetate], the “effect on retinal bisretinoid accumulation/synthesis” value [2] is listed as “effective in inhibiting bisretinoid synthesis”.

For `Cc1cc(C(=O)O)nc(N2C[C@H]3CC(c4ccccc4C(F)(F)F)C[C@H]3C2)n1` (stereo partly shown) [Compound 8, BPN-14136], the “effect on retinal bisretinoid accumulation/synthesis” value [2] is listed as “inhibited lipofuscin bisretinoid synthesis” and the “effect on serum RBP4 levels” value (RBP4 [3]) is listed as “robustly lowered serum RBP4 levels”.

For `O=C(O)c1ccccc1NC(=O)N1CCC(c2ccccc2C(F)(F)F)CC1` [Compound A1120, A1120], the “effect on retinal bisretinoid accumulation/synthesis” value [2] is given as “reduce retinal bisretinoid accumulation” and the “lowering of circulating RBP4 plasma levels” value (RBP4 [4]) is given as > 70%.

For `CC1=C(/C=C/C(C)=C/C=C/C(C)=C/C(=O)Nc2ccc(O)cc2)C(C)(C)CCC1` [fenretinide], the “drug-treated patients with reversible reduction in dark adaptation” value [5] is given as ~ 10% and the “yearly prevalence of transient and reversible ocular AEs such as diminished dark adaptation” value [6] is given as 5.8-6.7%.

In the case of `O=C(O)c1ccc2nc(-c3cc(Cl)cc(Cl)c3)oc2c1` [tafamidis], the “patients who do not respond” value [7] is given as “Approximately 30%”.

For patisiran, the ocular adverse effect [8] is listed as “symptoms of night blindness in a subset of patients”.

Reference: patent publication US20260256818A1, “NOVEL CO-DRUG, CO-ADMINISTRATION, AND SEQUENTIAL ADMINISTRATION OF BISPECIFIC RBP4/TTR LIGAND AND C20-D3-RETINOL FOR ELIMINATION OF MECHANISM-BASED OCULAR ADVERSE EFFECTS IN TREATING MACULAR DEGENERATION AND TTR AMYLOIDOSIS” (The Trustees of Columbia University in the City of New York, priority 2023, published 2026)
